Laboratory results reported in US20220313658A1, “YAP Inhibition for Wound Healing” (The Board of Trustees of the Leland Stanford Junior …, priority 2019, published 2022).

System: ENFs
Assay: Bulk RNA-seq of ENFs cultured on TCPS in the presence of Verteporfin
Type: cell-based, mouse
Protocol: Total RNA was harvested by lysing cells in Trizol reagent (Invitrogen), RNA extraction and library preparation was performed by the Stanford Functional Genomics facility using standard Qiagen kits and protocols. Directional RNA-Sal libraries were analyzed with an Agilent Bioanalyzer to ensure successful library creation, and then sequenced with the Illumina HiSeq 4000 System (2×75 bp, 150 cycles), Paired-end reads were mapped to the mouse genome reference sequence mm10 using the STAR aligner. […] It is common practice to normalize read counts by the total number of reads and the length of each transcript, yielding reads per kilobase mapped (RPKM) values. However, such analysis may be skewed towards a few highly expressed genes that dominate the total lane count. Thus, instead, counts were normalized by a size factor, calculated by taking the median of the ratios of observed counts to those of a pseudo-reference sample (whose counts are the geometric means of each gene across all samples). For hypothesis testing of differential gene transcription, the read counts were modeled according to a negative binomial distribution, with the variance considered as the sum of the shot noise term and a locally regressed non-parametric smooth function of the mean. […] Raw RNA-seq data can be accessed at the following Github repository: https://github.com/[…]. […] Ranked whole genome enrichment analyses in FIGS. 6 and 7 were performed using GSEA software developed by the Broad Institute with nominal p value and false discovery rate (FDR) cutoffs of 0.01 and 0.25, respectively. All g.Profiler and GSEA results are available in the following Github repository: https://github.com/[…]. In order to ascertain whether in vitro En-1 activation involved a shift toward a fibrotic transcriptomic profile, bulk ENFs were isolated from En-1^Cre;R26^mTmG mice and grew these cells on TCPS for 2 days (at which point ENFs remain single cells), 7 days (when ENFs form colonies), or 14 days (when ENFs activate En-1) (experimental schematic in FIG. 3, A). Cultured cells were then subjected to bulk RNA-seq analysis. Next, to assess if postnatal En-1 activation was dependent on mechanotransduction signaling, ENFs cultured on TCPS were grown in the presence of Verteporfin. After 14 days in culture, treated cells were subjected to RNA-seq. […] GO term analysis in g.

[1] = ENFs on TCPS, 14 days with Verteporfin

verteporfin was tested, and the “Expression of ECM / pro-fibrotic matrix genes” value [1] was “reduced expression of various ECM genes”, the “GO term enrichment (g.Profiler)” value [1] was “decreased enrichment of ECM-related terms and relatively higher muscle development-related terms” and the “Transcriptomic shift over time in culture (RNA-seq)” value (ENFs on TCPS, 14 days with Verteporfin, vs untreated cells) was “attenuated the transcriptomic shift observed in untreated cells”. For the same substance, the “Expression of ECM / pro-fibrotic matrix genes” value (ENFs on TCPS, 14 days with Verteporfin, listed as Vert) was “mitigated” and the “Principal component analysis of RNA-seq data” value (ENFs treated with Verteporfin for 14 days) was “more closely resembled untreated cells that had only been in culture for 2 days”.
